# Laboratory results taken from paper PMC2362731, “Phase I study of Carzelesin (U-80,244) given (4-weekly) by intravenous bolus schedule” (British Journal of Cancer, 1999).
# Tested on: patients with advanced solid tumours
# Assay: Phase I toxicity of Carzelesin, 4-weekly 10 min IV infusion (NCI-CTC grading)
# Assay type: in vivo, human
# Settings: for No. of courses with delayed recovery (no. of pts): delayed more than 3 days
# Protocol: Carzelesin is a cyclopropylpyrroloindole analogue which acts as a DNA-sequence-specific alkylating agent. In this phase I study, Carzelesin was given as a 4-weekly 10 min IV infusion to 51 patients with advanced solid tumours. Patients received a median of two courses (range 1–5) at one of nine dose levels: 24, 48, 96, 130, 150, 170, 210, 250 and 300 μg m^−2. According to NCI-CTC criteria, non-haematological toxicities (grade 1/2) included fever, nausea and vomiting, mucositis and anorexia, none of which was clearly dose related. The dose-limiting toxicity was haematological and consisted mainly of neutropenia and to a lesser extent thrombocytopenia. From the dose level 150 μg m^−2, the haematological toxicity (particularly thrombocytopenia) was delayed in onset, prolonged and cumulative in some patients. In several courses, double WBC nadirs occurred. The maximum tolerated dose for a single course was 300 μg m^−2. From the dose level 170 μg m^−2, the intended dose intensity could not be delivered to most patients receiving > 2 courses owing to cumulative haematological toxicity. The dose level with the best dose intensity for multiple courses was 150 μg m^−2. The pharmacokinetics of Carzelesin and its metabolites (U-76,073; U-76,074) have been established in 31 patients during the first course of treatment using a HPLC method. […] The concentration of U-76,074 (active metabolite) extended above the lower limit of quantitation (1 ng ml^−1) for short periods of time and only at the higher dose levels. There was no relationship between neutropenia and the AUC of the prodrug Carzelesin, but the presence of detectable plasma levels of the active metabolite U-76,074 was usually associated with a substantial decrease in ANC values. © 1999 Cancer Research Campaign
# Carzelesin (U-80,244, Figure 1A) is a cyclopropylpyrroloindole (CPI) prodrug analogue of CC-1065. […] CPI drugs are a class of compounds with unique DNA interactive properties. These agents fit into the minor groove region of DNA, and the CPI function in the molecule mediates a covalent binding to the N3 position of adenine in A-T rich regions, thus forming DNA adducts in a sequence selective fashion (Hurley et al, 1984; Reynolds et al, 1985). Three new CPIs have now been developed. […] Bizelesin differs from the classical CPI drugs in that it contains two chloromethyl functions, which are both converted (via intramolecular rearrangements) to the CPI alkyl- ating species that interact with DNA. Consequently, this agent is capable of forming DNA interstrand cross-links (Lee et al, 1991). […] Therefore, efforts were directed to modu- late the alkylation rate by the preparation of CPI prodrugs that would require chemical or enzymatic conversion. The activation of Carzelesin is a two-step reaction with hydrolysis of the phenyl- urethane substituent to form the intermediate compound U-76,073, followed by ring closure to form the active product U-76,074 (Figure 1B). […] This higher efficacy may be related to the pharmacologic features of the compound. […] Phase I study of Carzelesin (U-80,244) given (4-weekly) by intravenous bolus schedule A Awada1, CJA Punt2, MJ Piccart1, O Van Tellingen3, L Van Manen2, J Kerger1, Y Groot4, J Wanders4, J Verweij5 and DJTh Wagener2 1Institut Jules Bordet, Bd de Waterloo 125, 1000 Brussels, Belgium; 2University Hospital, Geert Grooteplein 8, Box 9101, 6500 HB Nijmegen, The Netherlands; 3The Netherlands Cancer Institute (Antoni van Leeuwenhoek Huis), Plesmanlaan 121, 1066 CX Amsterdam, The Netherlands; 4European Organization for Research and Treatment of Cancer - New Drug Development Office, PO Box 7057, Amsterdam, The Netherlands; 5Rotterdam Cancer Institute, Groene Hilledijk 301, 3075 EA Rotterdam, The Netherlands; on behalf of the EORTC Early Clinical Studies Group and EORTC NDDO Summary Carzelesin is a cyclopropylpyrroloindole analogue which acts as a DNA-sequence-specific alkylating agent. […]
compound,measurement,setting,value
CCN(CC)c1ccc2cc(C(=O)Nc3ccc4[nH]c(C(=O)N5C[C@@H](CCl)c6c5cc(OC(=O)Nc5ccccc5)c5[nH]cc(C)c65)cc4c3)oc2c1 [Carzelesin],dose level with the best dose intensity for multiple courses,4-weekly 10 min IV infusion,150 μg m^−2
same,maximum tolerated dose for a single course,4-weekly 10 min IV infusion,300 μg m^−2
same,No. of reduced courses due to haematological toxicity,"Table 2, dose level 24 μg m-2",0
same,No. of courses with delayed recovery (no. of pts),"Table 2, dose level 24 μg m-2",0
same,No. of reduced courses due to haematological toxicity,"Table 2, dose level 48 μg m-2",0
same,No. of courses with delayed recovery (no. of pts),"Table 2, dose level 48 μg m-2",0
same,No. of reduced courses due to haematological toxicity,"Table 2, dose level 96 μg m-2",0
same,No. of courses with delayed recovery (no. of pts),"Table 2, dose level 96 μg m-2",0
same,No. of reduced courses due to haematological toxicity,"Table 2, dose level 130 μg m-2",0
same,No. of courses with delayed recovery (no. of pts),"Table 2, dose level 130 μg m-2",0
same,No. of courses with delayed recovery (no. of pts),"Table 2, dose level 150 μg m-2",3 (1)
same,No. of reduced courses due to haematological toxicity,"Table 2, dose level 150 μg m-2, reduced to 130, 1 patient",3
same,No. of reduced courses due to haematological toxicity,"Table 2, dose level 170 μg m-2",0
same,No. of courses with delayed recovery (no. of pts),"Table 2, dose level 170 μg m-2",4 (4)
same,No. of courses with delayed recovery (no. of pts),"Table 2, dose level 210 μg m-2",5 (5)
same,No. of reduced courses due to haematological toxicity,"Table 2, dose level 210 μg m-2, reduced to 96, 105, 150, 4 patients",6
same,No. of courses with delayed recovery (no. of pts),"Table 2, dose level 250 μg m-2",3 (3)
same,No. of reduced courses due to haematological toxicity,"Table 2, dose level 250 μg m-2, reduced to 130, 170, 3 patients",6
same,No. of courses with delayed recovery (no. of pts),"Table 2, dose level 300 μg m-2",2 (2)
same,No. of reduced courses due to haematological toxicity,"Table 2, dose level 300 μg m-2, reduced to 150, 2 patients",2
same,"Neutropenia grade 3/4, No. of courses","Table 3, dose level 24 μg m-2",0
same,"Neutropenia grade 3/4, No. of patients (worst grade per patient)","Table 3, dose level 24 μg m-2",0
same,"Neutropenia grade 3/4, patients following the first course","Table 3, dose level 24 μg m-2",0
same,No. of toxic patients following the first course,"Table 3, dose level 24 μg m-2",0
same,"Thrombocytopenia grade 3/4, No. of courses","Table 3, dose level 24 μg m-2",0
same,"Thrombocytopenia grade 3/4, No. of patients (worst grade per patient)","Table 3, dose level 24 μg m-2",0
same,"Thrombocytopenia grade 3/4, patients following the first course","Table 3, dose level 24 μg m-2",0
same,No. of toxic patients/courses (grade 3/4 neutropenia and/or thrombocytopenia),"Table 3, dose level 24 μg m-2, 4/6 evaluable patients/courses",0
same,"Neutropenia grade 3/4, No. of courses","Table 3, dose level 48 μg m-2",0
same,"Neutropenia grade 3/4, No. of patients (worst grade per patient)","Table 3, dose level 48 μg m-2",0
same,"Neutropenia grade 3/4, patients following the first course","Table 3, dose level 48 μg m-2",0
same,No. of toxic patients following the first course,"Table 3, dose level 48 μg m-2",0
same,"Thrombocytopenia grade 3/4, No. of courses","Table 3, dose level 48 μg m-2",0
same,"Thrombocytopenia grade 3/4, No. of patients (worst grade per patient)","Table 3, dose level 48 μg m-2",0
same,"Thrombocytopenia grade 3/4, patients following the first course","Table 3, dose level 48 μg m-2",0
same,No. of toxic patients/courses (grade 3/4 neutropenia and/or thrombocytopenia),"Table 3, dose level 48 μg m-2, 3/7 evaluable patients/courses",0
same,"Neutropenia grade 3/4, No. of courses","Table 3, dose level 96 μg m-2",0/1
same,"Neutropenia grade 3/4, No. of patients (worst grade per patient)","Table 3, dose level 96 μg m-2",0/1
same,"Neutropenia grade 3/4, patients following the first course","Table 3, dose level 96 μg m-2",0/1
same,No. of toxic patients following the first course,"Table 3, dose level 96 μg m-2",2
same,"Thrombocytopenia grade 3/4, No. of courses","Table 3, dose level 96 μg m-2",1/0
same,"Thrombocytopenia grade 3/4, No. of patients (worst grade per patient)","Table 3, dose level 96 μg m-2",1/0
same,"Thrombocytopenia grade 3/4, patients following the first course","Table 3, dose level 96 μg m-2",1/0
same,No. of toxic patients/courses (grade 3/4 neutropenia and/or thrombocytopenia),"Table 3, dose level 96 μg m-2, 5/8 evaluable patients/courses",2/2
same,"Neutropenia grade 3/4, No. of courses","Table 3, dose level 130 μg m-2",2/0
same,"Neutropenia grade 3/4, No. of patients (worst grade per patient)","Table 3, dose level 130 μg m-2",2/0
same,"Neutropenia grade 3/4, patients following the first course","Table 3, dose level 130 μg m-2",0
same,No. of toxic patients following the first course,"Table 3, dose level 130 μg m-2",0
same,"Thrombocytopenia grade 3/4, No. of courses","Table 3, dose level 130 μg m-2",2/1
same,"Thrombocytopenia grade 3/4, No. of patients (worst grade per patient)","Table 3, dose level 130 μg m-2",2/1
same,"Thrombocytopenia grade 3/4, patients following the first course","Table 3, dose level 130 μg m-2",0
same,No. of toxic patients/courses (grade 3/4 neutropenia and/or thrombocytopenia),"Table 3, dose level 130 μg m-2, 5/9 evaluable patients/courses",3/3
same,"Neutropenia grade 3/4, No. of courses","Table 3, dose level 150 μg m-2",2/2
same,"Neutropenia grade 3/4, No. of patients (worst grade per patient)","Table 3, dose level 150 μg m-2",1/2
same,"Neutropenia grade 3/4, patients following the first course","Table 3, dose level 150 μg m-2",0/1
same,No. of toxic patients following the first course,"Table 3, dose level 150 μg m-2",2
same,"Thrombocytopenia grade 3/4, No. of courses","Table 3, dose level 150 μg m-2",1/1
same,"Thrombocytopenia grade 3/4, No. of patients (worst grade per patient)","Table 3, dose level 150 μg m-2",1/1
same,"Thrombocytopenia grade 3/4, patients following the first course","Table 3, dose level 150 μg m-2",1/1
same,No. of toxic patients/courses (grade 3/4 neutropenia and/or thrombocytopenia),"Table 3, dose level 150 μg m-2, 6/14 evaluable patients/courses",4/5
same,"Neutropenia grade 3/4, No. of courses","Table 3, dose level 170 μg m-2",1/3
same,"Neutropenia grade 3/4, No. of patients (worst grade per patient)","Table 3, dose level 170 μg m-2",1/3
same,"Neutropenia grade 3/4, patients following the first course","Table 3, dose level 170 μg m-2",0/2
same,No. of toxic patients following the first course,"Table 3, dose level 170 μg m-2",4
same,"Thrombocytopenia grade 3/4, No. of courses","Table 3, dose level 170 μg m-2",5/2
same,"Thrombocytopenia grade 3/4, No. of patients (worst grade per patient)","Table 3, dose level 170 μg m-2",3/2
same,"Thrombocytopenia grade 3/4, patients following the first course","Table 3, dose level 170 μg m-2",3/0
same,No. of toxic patients/courses (grade 3/4 neutropenia and/or thrombocytopenia),"Table 3, dose level 170 μg m-2, 9/16 evaluable patients/courses",6/8
same,"Neutropenia grade 3/4, No. of courses","Table 3, dose level 210 μg m-2",3/3
same,"Neutropenia grade 3/4, No. of patients (worst grade per patient)","Table 3, dose level 210 μg m-2",2/3
same,"Neutropenia grade 3/4, patients following the first course","Table 3, dose level 210 μg m-2",3/1
same,No. of toxic patients following the first course,"Table 3, dose level 210 μg m-2",4
same,"Thrombocytopenia grade 3/4, No. of courses","Table 3, dose level 210 μg m-2",0/2
same,No. of toxic patients/courses (grade 3/4 neutropenia and/or thrombocytopenia),"Table 3, dose level 210 μg m-2, 7/10 evaluable patients/courses",5/6
same,"Thrombocytopenia grade 3/4, No. of patients (worst grade per patient)","Table 3, dose level 210 μg m-2, one patient had pre-existing grade 1 thrombocytopenia",0/2
